Values joined by “and” are separate entries in the source; they are usually repeats but may differ in a detail not shown here. Equal entries are not always repeated. Inconclusive results and toxic doses are left out.
System: P388 leukemia ip, CD2F1 mice, survival T/C
Assay: NCI In Vivo Anticancer Drug Screen. Data for tumor model P388 Leukemia (intraperitoneal) in CD2F1 (CDF1) mice
Conditions: endpoint: median survival time, higher = longer survival
In short: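 Mice carrying the transplanted tumor received test compound or vehicle. Survival was recorded in each group, and the value is the treated-group measurement divided by that of the vehicle-treated control group.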

[1] = dose: 60.0 mg/kg/injection, schedule: Q01DX005 (ip), vehicle: saline with Tween-80
[2] = dose: 120.0 mg/kg/injection, schedule: Q01DX005 (ip), vehicle: saline with Tween-80
[3] = dose: 240.0 mg/kg/injection, schedule: Q01DX005 (ip), vehicle: saline with Tween-80
[4] = dose: 3.12 mg/kg/injection, schedule: Q01DX005 (ip), vehicle: Klucel (hydroxypropylcellulose) (HPC)
[5] = dose: 50.0 mg/kg/injection, schedule: Q01DX005 (ip), vehicle: Klucel (hydroxypropylcellulose) (HPC)
[6] = dose: 100.0 mg/kg/injection, schedule: Q01DX005 (ip), vehicle: Klucel (hydroxypropylcellulose) (HPC)
[7] = dose: 25.0 mg/kg/injection, schedule: Q01DX009 (ip), vehicle: saline with Tween-80
[8] = dose: 50.0 mg/kg/injection, schedule: Q01DX009 (ip), vehicle: saline with Tween-80
[9] = dose: 100.0 mg/kg/injection, schedule: Q01DX009 (ip), vehicle: saline with Tween-80
[10] = dose: 200.0 mg/kg/injection, schedule: Q01DX009 (ip), vehicle: saline with Tween-80
[11] = dose: 200.0 mg/kg/injection, schedule: Q01DX005 (ip), vehicle: Klucel (hydroxypropylcellulose) (HPC)

C[C@@]12CCCC[C@@H]1N(CCN1CCCCC1)c1ccccc12
T/C [1]: 95 % of control | T/C [2]: 105 % of control | T/C [3]: 98 % of control

C=CCSC(=NC#N)SC
T/C [4]: 101 % of control | T/C (dose: 6.25 mg/kg/injection, schedule: Q01DX005 (ip), vehicle: Klucel (hydroxypropylcellulose) (HPC)): 101 % of control | T/C (dose: 12.5 mg/kg/injection, schedule: Q01DX005 (ip), vehicle: Klucel (hydroxypropylcellulose) (HPC)): 107 % of control

CCCCCCN(CCCCCC)c1nc(Cl)nc(NCC)n1
T/C (dose: 50.0 mg/kg/injection, schedule: Q01DX005 (ip), vehicle: saline with Tween-80): 111 % of control | T/C (dose: 100.0 mg/kg/injection, schedule: Q01DX005 (ip), vehicle: saline with Tween-80): 103 % of control | T/C (dose: 200.0 mg/kg/injection, schedule: Q01DX005 (ip), vehicle: saline with Tween-80): 103 % of control

COC(=O)c1cc(NC(=O)Oc2ccccn2)cc(C(=O)OC)c1
T/C (dose: 50.0 mg/kg/injection, schedule: Q01DX009 (ip), vehicle: olive oil, sesame oil, peanut oil): 98 % of control | T/C (dose: 100.0 mg/kg/injection, schedule: Q01DX009 (ip), vehicle: olive oil, sesame oil, peanut oil): 97 % of control | T/C (dose: 200.0 mg/kg/injection, schedule: Q01DX009 (ip), vehicle: olive oil, sesame oil, peanut oil): 99 % of control

CN(C)c1ccc(/C=C/c2ccncc2)cc1
T/C (dose: 1.56 mg/kg/injection, schedule: Q01DX009 (ip), vehicle: saline with Tween-80): 104 % of control and 106 % of control | T/C (dose: 3.13 mg/kg/injection, schedule: Q01DX009 (ip), vehicle: saline with Tween-80): 104 % of control and 113 % of control | T/C (dose: 6.25 mg/kg/injection, schedule: Q01DX009 (ip), vehicle: saline with Tween-80): 102 % of control and 94 % of control

N/C(=N\N=C/c1ccccc1)NN(Cc1ccccc1)N=O
T/C (dose: 25.0 mg/kg/injection, schedule: Q01DX005 (ip), vehicle: Klucel (hydroxypropylcellulose) (HPC)): 100 % of control | T/C [5]: 92 % of control | T/C [6]: 94 % of control

C=C(C)CC1C(=O)OC(=O)C1(CC(=C)C)CC(=C)C (configuration not stated)
T/C (dose: 50.0 mg/kg/injection, schedule: Q01DX009 (ip), vehicle: saline): 100 % of control | T/C (dose: 100.0 mg/kg/injection, schedule: Q01DX009 (ip), vehicle: saline): 99 % of control | T/C (dose: 200.0 mg/kg/injection, schedule: Q01DX009 (ip), vehicle: saline): 93 % of control

Cc1cccc(N=Nc2c(-c3ccccc3)nn(C(N)=S)c2-c2ccccc2)c1C
T/C (dose: 73.9 mg/kg/injection, schedule: Q04DX002 (ip), vehicle: Klucel (hydroxypropylcellulose) (HPC)): 96 % of control | T/C (dose: 147.0 mg/kg/injection, schedule: Q04DX002 (ip), vehicle: Klucel (hydroxypropylcellulose) (HPC)): 96 % of control | T/C (dose: 295.0 mg/kg/injection, schedule: Q04DX002 (ip), vehicle: Klucel (hydroxypropylcellulose) (HPC)): 100 % of control

CCC[CH2][Sn]([Cl])([CH2]CCC)[S]/C(C#N)=N/N=C/c1ccc(N(C)C)cc1
T/C (dose: 15.0 mg/kg/injection, schedule: Q01DX005 (ip), vehicle: saline with Tween-80): 106 % of control | T/C [1]: 122 % of control

O=C1/C(=C/c2ccccc2)CCC/C1=C\c1ccccc1
T/C [7]: 104 % of control | T/C [8]: 104 % of control | T/C [9]: 100 % of control

C/C=C\C1OC1(C)c1cc(=O)c2c(C)cc3c(c2o1)C(=O)c1c(O)c(C2CC(C)(N(C)C)C(OC(C)=O)C(C)O2)cc(C2CC(N(C)C)C(O)C(C)O2)c1C3=O (configuration not stated)
T/C (dose: 1.0 mg/kg/injection, schedule: Q01DX009 (ip), vehicle: saline + alcohol): 122 % of control | T/C (dose: 1.0 mg/kg/injection, schedule: Q01DX010 (ip), vehicle: saline): 154 % of control | T/C (dose: 2.0 mg/kg/injection, schedule: Q01DX010 (ip), vehicle: saline): 95 % of control

COc1cc(OC)c2cc(C(=O)c3ccc(C#N)cc3)c(=O)oc2c1
T/C [1]: 94 % of control | T/C [2]: 104 % of control | T/C [3]: 105 % of control

COc1cccc(OC)c1N(CCO)CCO
T/C [8]: 101 % of control | T/C [9]: 95 % of control | T/C [10]: 106 % of control

CCOC(=O)/C(C#N)=C/Nc1[nH]c(=O)c(C#N)c(-c2ccc(Cl)cc2)c1SC
T/C [1]: 110 % of control | T/C [2]: 100 % of control | T/C [3]: 108 % of control

CN1CCC(Br)(C(=O)c2ccccc2)CC1
T/C (dose: 37.5 mg/kg/injection, schedule: Q01DX009 (ip), vehicle: saline with Tween-80): 100 % of control | T/C (dose: 75.0 mg/kg/injection, schedule: Q01DX009 (ip), vehicle: saline with Tween-80): 100 % of control | T/C (dose: 150.0 mg/kg/injection, schedule: Q01DX009 (ip), vehicle: saline with Tween-80): 104 % of control

CCC[CH2][Sn]1([CH2]CCC)[O]C2C(OC)OC3COC(c4ccccc4)OC3C2[O]1 (configuration not stated)
T/C (dose: 12.5 mg/kg/injection, schedule: Q04DX003 (ip), vehicle: saline): 105 % of control | T/C (dose: 25.0 mg/kg/injection, schedule: Q04DX003 (ip), vehicle: saline): 110 % of control | T/C (dose: 50.0 mg/kg/injection, schedule: Q04DX003 (ip), vehicle: saline): 112 % of control

CC1(C)CC(N2CCN(CCO)CC2)=CC(=S)N1
T/C [5]: 103 % of control | T/C [6]: 93 % of control | T/C [11]: 104 % of control

[Cl][Sn]([Cl])([c]1ccccc1)[c]1ccccc1.c1ccc(-c2nnc(-c3ccccn3)nc2-c2ccccc2)cc1
T/C (dose: 0.79 mg/kg/injection, schedule: Q01DX005 (ip), vehicle: Klucel (hydroxypropylcellulose) (HPC)): 101 % of control and 120 % of control | T/C (dose: 1.56 mg/kg/injection, schedule: Q01DX005 (ip), vehicle: Klucel (hydroxypropylcellulose) (HPC)): 120 % of control | T/C [4]: 123 % of control

Cc1ccc(C2(C)OC(CCl)CS2)c(C)c1 (configuration not stated)
T/C [7]: 101 % of control and 98 % of control | T/C [8]: 104 % of control and 98 % of control | T/C [9]: 105 % of control | T/C [10]: 107 % of control and 119 % of control

O=C1CSC(c2ccco2)N1c1nncs1 (configuration not stated)
T/C (dose: 30.0 mg/kg/injection, schedule: Q01DX005 (ip), vehicle: Klucel (hydroxypropylcellulose) (HPC)): 100 % of control | T/C (dose: 60.0 mg/kg/injection, schedule: Q01DX005 (ip), vehicle: Klucel (hydroxypropylcellulose) (HPC)): 100 % of control | T/C (dose: 120.0 mg/kg/injection, schedule: Q01DX005 (ip), vehicle: Klucel (hydroxypropylcellulose) (HPC)): 103 % of control | T/C (dose: 240.0 mg/kg/injection, schedule: Q01DX005 (ip), vehicle: Klucel (hydroxypropylcellulose) (HPC)): 108 % of control

O=[N+]([O-])C(CO)CCCC(CO)[N+](=O)[O-] (configuration not stated)
T/C (dose: 50.0 mg/kg/injection, schedule: Q01DX005 (ip), vehicle: saline): 111 % of control | T/C (dose: 100.0 mg/kg/injection, schedule: Q01DX005 (ip), vehicle: saline): 107 % of control | T/C (dose: 200.0 mg/kg/injection, schedule: Q01DX005 (ip), vehicle: saline): 107 % of control

COc1ccc(N2CC=C(c3ccccc3)OP2(=O)N2CC2)cc1 (configuration not stated)
T/C [5]: 106 % of control | T/C [6]: 105 % of control | T/C [11]: 95 % of control

CC(=O)c1c(Br)c2c3ccccc3c3ccccc3n2c1C
T/C [1]: 107 % of control | T/C [2]: 106 % of control | T/C [3]: 92 % of control

CCCCCCCC[As](CCCCCCCC)SC1OC(COC(C)=O)C(OC(C)=O)C(OC(C)=O)C1OC(C)=O (configuration not stated)
T/C (dose: 50.0 mg/kg/injection, schedule: Q01DX009 (ip), vehicle: Klucel (hydroxypropylcellulose) (HPC)): 102 % of control | T/C (dose: 100.0 mg/kg/injection, schedule: Q01DX009 (ip), vehicle: Klucel (hydroxypropylcellulose) (HPC)): 90 % of control

— PubChem BioAssay AID330 (DTP/NCI, 2004)
